Publication PMC7496931, “Activation of Sirtuin 2 Inhibitors Employing Photoswitchable Geometry and Aqueous Solubility” (Chemmedchem, 2020)
Several values for one entry are separate records, joined by “and”; a condition that tells them apart may be missing. Equal values may be shown once. Read-outs that look alike come from different tables or passages of the source.

Columns and labels:
Assay type in all cases: biochemical
Sirt2 = target: T1, Sirt2 (Homo sapiens, UniProt Q8IXJ6); experiment: Fluorescence-based ZMAL deacetylase activity assay, Sirt2
T1 construct: Expression and purification of Sirt1_133−747, Sirt2_56−356, and Sirt3_118−395 was carried out as described previously; made in house
T1 sequence (Q8IXJ6 56-356): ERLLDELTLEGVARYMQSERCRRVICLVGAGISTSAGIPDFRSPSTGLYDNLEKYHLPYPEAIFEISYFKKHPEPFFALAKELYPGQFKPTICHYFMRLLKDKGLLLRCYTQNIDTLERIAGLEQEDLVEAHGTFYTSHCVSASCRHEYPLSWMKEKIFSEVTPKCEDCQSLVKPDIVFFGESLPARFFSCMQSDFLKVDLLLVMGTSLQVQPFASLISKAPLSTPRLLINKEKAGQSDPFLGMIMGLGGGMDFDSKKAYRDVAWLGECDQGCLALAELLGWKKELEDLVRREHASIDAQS
Procedure: (§1) The effect of the compounds on deacetylase activity of three human sirtuin isotypes (Sirt1–3) was investigated by a homogeneous fluorescence‐based assay, using (Z)‐Lys(acetyl)‐AMC (ZMAL) as substrate. In order to determine the impact of photoisomerization, the respective compounds were irradiated (365 nm, 5 min) in DMSO prior to incubation in the enzyme assay mixture. The results of the irradiated probes were finally compared to non‐irradiated measurements.
(§2) Cloning, expression and purification of recombinant proteins: Expression and purification of Sirt1_133−747, Sirt2_56−356, and Sirt3_118−395 was carried out as described previously.27 Identity and purity were verified by SDS‐PAGE.
(§3) Fluorescence‐based activity assay: The inhibitory effect of compounds on Sirt1–3 was detected via a previously reported fluorescence‐based assay.29 The synthetic substrate (Z)‐Lys(acetyl)‐AMC (ZMAL) is deacetylated by sirtuins, followed by tryptic digestion and thereby release of 7‐aminomethylcoumarin, leading to a fluorescent readout. Inhibition was determined by comparing percentage substrate conversion to a DMSO control after subtraction of the blank fluorescence signal. All compounds were tested at 100 or 50 μM and 10 μM respectively. […] IC50 values were calculated with OriginPro 9.0 G using a non‐linear regression to fit the dose response curve (Figure S6). An enzyme‐free blank control and a 100 % conversion control using AMC instead of ZMAL were measured as well. Inhibition measurements were performed in biological duplicates for all compounds. […]
(§4) Fluorescence-Based Activity Assay (ZMAL-Assay)
(§5) The influence of the synthesized compounds on the deacetylase activity of the class I sirtuins Sirt1–3 was determined in a homogenous fluorescence-based enzyme assay, using the artificial substrate Z-(Ac)Lys-AMC (ZMAL). ZMAL is processed by sirtuins yielding Z-Lys-AMC.
(§6) The latter is subsequently cleaved by tryptic digestion, releasing 7-amino-4-methylcoumarin (AMC), excitation of which leads to a fluorescent read out (λex=390 nm; λem=460 nm). Instead, […]
(§7) contribute to the fluorescence signal. Therefore, the fluorescence intensity is proportional to the activity of the respective sirtuin.
(§8) After subtraction of the blank fluorescence signal (without enzyme) from the signal of the respective probe, the residual signal intensity is related to a 100 % conversion control (AMC), […]
(§9) yielding the percentage substrate conversion. Comparison of the determined substrate conversion with a no-inhibition DMSO control yields the percentage inhibition at the respective […]
(§10) For determination of IC50, inhibitory activity of the respective compound was determined at 8 to 10 distinct concentrations. The measured values were analysed by a non-linear fit to the dose-response curve using a four parameter logistic model (Figure S6):
(§11) Figure S6: Non-linear regression of the dose-response curves of compounds 15c and 15f at the thermal equilibrium (∆, black) and after 5 minutes of 365 nm irradiation (red). […]
(§12) A maximal polarization control using just DMSO and a minimal polarization control using 1 µL of the 400 µM solution of 22 instead of inhibitor were performed as well as a blank control containing 1 µL of DMSO in 19 µL assay buffer. The mixture was incubated 10 min at 37 °C

Sirt3 = target: T2, Sirt3 (Homo sapiens, UniProt Q9NTG7); experiment: Fluorescence-based ZMAL deacetylase activity assay, Sirt3; design: key to Sirt3 inhibition Δ (class) / Sirt3 inhibition PSS [365 nm] (class): n.i.: no inhibition detected (<30 % @ 100 μM); u.i.: unspecific interactions
T2 construct: Expression and purification of Sirt1_133−747, Sirt2_56−356, and Sirt3_118−395 was carried out as described previously; made in house
T2 sequence (Q9NTG7 118-395): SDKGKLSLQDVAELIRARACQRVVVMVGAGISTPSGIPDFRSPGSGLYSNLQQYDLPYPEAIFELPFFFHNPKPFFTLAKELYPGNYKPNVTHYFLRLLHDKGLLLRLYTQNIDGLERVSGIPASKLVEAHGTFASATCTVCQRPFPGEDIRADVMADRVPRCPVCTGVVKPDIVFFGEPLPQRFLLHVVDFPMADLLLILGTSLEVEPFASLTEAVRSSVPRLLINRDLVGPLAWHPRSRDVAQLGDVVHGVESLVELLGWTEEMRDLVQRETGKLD
Procedure: as §1, §2, §3, §4, §5, §6, §7, §8, §9, §10, §11, §12

Sirt1 = target: T3, Sirt1 (Homo sapiens, UniProt Q96EB6); experiment: Fluorescence-based ZMAL deacetylase activity assay, Sirt1
T3 construct: Expression and purification of Sirt1_133−747, Sirt2_56−356, and Sirt3_118−395 was carried out as described previously; made in house
T3 sequence (Q96EB6 133-747): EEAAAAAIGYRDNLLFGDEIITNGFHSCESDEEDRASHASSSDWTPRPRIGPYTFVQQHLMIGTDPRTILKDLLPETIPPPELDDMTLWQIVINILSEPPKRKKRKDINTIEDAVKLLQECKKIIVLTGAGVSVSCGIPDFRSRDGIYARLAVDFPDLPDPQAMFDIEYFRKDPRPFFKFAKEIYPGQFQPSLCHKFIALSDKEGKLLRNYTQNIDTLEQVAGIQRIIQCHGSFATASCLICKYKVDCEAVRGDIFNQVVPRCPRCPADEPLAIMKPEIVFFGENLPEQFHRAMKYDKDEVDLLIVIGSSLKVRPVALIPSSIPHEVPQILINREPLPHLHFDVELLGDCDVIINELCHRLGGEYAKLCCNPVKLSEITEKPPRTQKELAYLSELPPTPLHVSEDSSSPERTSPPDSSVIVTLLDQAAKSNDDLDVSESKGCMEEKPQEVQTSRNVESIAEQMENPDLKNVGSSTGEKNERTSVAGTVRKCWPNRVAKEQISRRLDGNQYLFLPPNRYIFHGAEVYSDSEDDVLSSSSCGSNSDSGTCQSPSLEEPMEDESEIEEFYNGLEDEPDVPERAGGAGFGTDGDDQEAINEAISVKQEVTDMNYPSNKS
Procedure: as §1, §2, §3, §4, §5, §6, §7, §8, §9, §10, §11
A maximal polarization control using just DMSO and a minimal polarization control using 1 µL of the 400 µM solution of 22 instead of inhibitor were performed as well as a blank control containing 1 µL of DMSO in 19 µL assay buffer. The mixture was incubated 10 min at 37 °C […]
(1 picture or pasted object on this page, not shown here)

[1] = PSS after 5 min UV irradiation (365 nm), read-out: Sirt2 inhibition PSS [365 nm], percent inhibition (converted)
[2] = thermal equilibrium (Δ), read-out: Sirt2 inhibition Δ, percent inhibition (converted)
[3] = thermal equilibrium (Δ), read-out: Sirt2 inhibition Δ, percent inhibition
[4] = PSS after 5 min UV irradiation (365 nm), read-out: Sirt3 inhibition PSS [365 nm], percent inhibition
[5] = thermal equilibrium (Δ), read-out: Sirt3 inhibition Δ, percent inhibition
[6] = PSS after 5 min UV irradiation (365 nm), read-out: Sirt1 inhibition PSS [365 nm] (class)
[7] = thermal equilibrium (Δ), read-out: Sirt1 inhibition Δ (class)
[8] = PSS after 5 min UV irradiation (365 nm), read-out: Sirt2 inhibition PSS [365 nm], IC50
[9] = thermal equilibrium (Δ), read-out: Sirt2 inhibition Δ, IC50
[10] = PSS after 5 min UV irradiation (365 nm)
[11] = PSS after 5 min UV irradiation (365 nm), read-out: Sirt2 inhibition PSS [365 nm], percent inhibition

| SMILES | inhibition at 10 µM (Sirt2; [1]) [%] | inhibition at 10 µM (Sirt2; [2]) [%] | inhibition at 100 µM (Sirt1; [6]) [%] | inhibition at 100 µM (Sirt1; [7]) [%] | Sirt3 inhibition PSS [365 nm] (class) (Sirt3; [10]) | Sirt3 inhibition Δ (class) (Sirt3; thermal equilibrium (Δ)) | other results |
| --- | --- | --- | --- | --- | --- | --- | --- |
| NC(=O)c1cncc(/N=N/c2c(O)ccc3ccccc23)c1 [7 c] | – | – | – | – | – | – | inhibition at 10 µM (Sirt2; non-irradiated, read-out: Sirt2 inhibition, percent inhibition relative to controls): 55%; inhibition at 10 µM (Sirt3; non-irradiated, read-out: Sirt3 inhibition, percent inhibition relative to controls): 64%; Sirt1 inhibition (class) (Sirt1; non-irradiated): n.i. (n.i.: no inhibition detected (<30 % @ 100 μM)) |
| Cc1cc(/N=N/c2cncc(C(N)=O)c2)cc(C)c1N [7 f] | – | – | – | – | – | – | IC50 (Sirt2; non-irradiated, read-out: Sirt2 inhibition, IC50): 6 µM and 5.8 µM; IC50 (Sirt3; non-irradiated, read-out: Sirt3 inhibition, IC50): 9 µM and 9.4 µM; inhibition at 100 µM (Sirt1; @ 100 μM, non-irradiated, read-out: Sirt1 inhibition, percent inhibition relative to controls): 47% |
| CC(=O)Nc1c(C)cc(/N=N/c2cncc(C(N)=O)c2)cc1C [9 a] | 11 | 17 | < 30 | < 30 | – | – | inhibition at 100 µM (Sirt2; [3]): 65%; inhibition at 100 µM (Sirt3; [4]): 52%; inhibition at 100 µM (Sirt3; [5]): 68% |
| CCCC(=O)Nc1c(C)cc(/N=N/c2cncc(C(N)=O)c2)cc1C [9 b] | 4 | 30 | < 30 | < 30 | – | – | inhibition at 100 µM (Sirt3; [4]): 52%; inhibition at 100 µM (Sirt3; [5]): 80% |
| CCCCCC(=O)Nc1c(C)cc(/N=N/c2cncc(C(N)=O)c2)cc1C [9 c] | 24 | 40 | < 30 | < 30 | – | – | inhibition at 10 µM (Sirt3; [4]): 3%; inhibition at 10 µM (Sirt3; [5]): 20% |
| CCCCCCCC(=O)Nc1c(C)cc(/N=N/c2cncc(C(N)=O)c2)cc1C [9 d] | 54 | 26 | < 30 | < 30 | u.i. | u.i. | increase of Sirt2 inhibition upon 365 nm irradiation (factor) (Sirt2; PSS 365 nm versus thermal equilibrium): about fivefold; IC50 (Sirt2; [8]): 7.9 ± 0.7 µM; IC50 (Sirt2; [9]): 44 ± 9.5 µM |
| CCCCCCCCCC(=O)Nc1c(C)cc(/N=N/c2cncc(C(N)=O)c2)cc1C [9 e] | 78 | 26 | < 30 | < 30 | u.i. | u.i. | – |
| CCCCCCCCCCCC(=O)Nc1c(C)cc(/N=N/c2cncc(C(N)=O)c2)cc1C [9 f] | 65 | 46 | < 30 | < 30 | u.i. | u.i. | – |
| CCCCCCCCCCCCCC(=O)Nc1c(C)cc(/N=N/c2cncc(C(N)=O)c2)cc1C [9 g] | – | – | < 30 | < 30 | u.i. | u.i. | IC50 (Sirt2; [8]): 0.9 ± 0.2 µM; IC50 (Sirt2; [9]): 2.2 ± 0.3 µM |
| Cc1cc(/N=N/c2cncc(C(N)=O)c2)cc(C)c1NC(=O)c1ccccc1 [9 h] | – | – | < 30 | < 30 | – | n.i. (n.i.: no inhibition detected (<30 % @ 100 μM)) | inhibition at 100 µM (Sirt2; [11]): 52%; inhibition at 100 µM (Sirt2; [3]): 27%; inhibition at 100 µM (Sirt3; [4]): 32% |
| Cc1cc(/N=N/c2cncc(C(N)=O)c2)cc(C)c1NC(=O)c1ccc(F)cc1 [9 i] | 15 | 15 | < 30 | < 30 | n.i. (n.i.: no inhibition detected (<30 % @ 100 μM)) | n.i. (n.i.: no inhibition detected (<30 % @ 100 μM)) | – |
| Cc1cc(/N=N/c2cncc(C(N)=O)c2)cc(C)c1NC(=O)c1ccc(-c2cccs2)cc1 [9 j] | – | – | < 30 | < 30 | u.i. | u.i. | inhibition at 100 µM (Sirt2; [11]): 59%; inhibition at 100 µM (Sirt2; [3]): 80% |
